{
  "source": "patent US12589161B2",
  "about": "“PEGylated synthetic KL4 peptide, compositions and methods thereof” (THE UNIVERSITY OF HONG KONG, priority 2019, dated 2026)",
  "key": {"A549 cells [1]": {"system": "A549 cells", "assay": "GAPDH siRNA transfection on A549 cells (Western blot)", "type": "cell-based, human", "details": "for inhibition of GAPDH protein: A549, 25 nM siRNA, 10:1 ratio (w/w); for siRNA transfection efficiency among the four peptides at different amounts of siRNA: A549, 10:1 ratio, 6 to 100 nM siRNA; for Comparison within the same peptide prepared at different peptide to siRNA ratios: A549, one-way ANOVA, Tukey, n.s. not significant, * p<0.05, ** p<0.01, *** p<0.001", "procedure": "A549 cells were seeded in 6-well plates at a density of 1.5×10^5 cells per well one day before transfection. The cells were transfected with peptide/siRNA complexes containing 50 pmol of GAPDH siRNA or negative control siRNA per well (50 nM). The complexes were prepared in OptiMEM I reduced serum medium at 10:1, 15:1 and 20:1 ratios (w/w). Lipofectamine 2000 was used as control. The complexes were added to the cells and incubated for 4 h at 5% CO2, 37° C. before being washed with PBS. The transfection medium was removed and replaced with serum supplemented cell culture medium. At 72 h post-transfection, the cells were washed and lysed with cell lysis buffer. Western blotting assay was performed to analyze the level of GAPDH protein. The GAPDH expression was analyzed by densitometry of Western Blots using Image J software. The remaining GAPDH expression was the density of the GAPDH band of positive control (normalized with beta-actin of the corresponding sample) divided by the GAPDH band of negative control (normalized with the beta actin band of the corresponding sample).\n(§1) A549 cells, BEAS-2B and Calu-3 cells were seeded in six-well plates at a density of 1.6×10^5 cells per well, 2×10^5 cells per well and 3×10^5 cells per well, respectively, one to two days before transfection. The cells were transfected with peptide/siRNA complexes at 5:1 to 20:1 ratio (w/w) containing GAPDH siRNA or negative control siRNA (6 to 100 nM) in OptiMEM I reduced serum medium. Lipofectamine 2000 was used for comparison. After 5 h of incubation, the cells were washed and replaced with serum supplemented cell culture medium. At 72 h post-transfection, the cells were washed and lysed with cell lysis buffer. Western blotting assay was performed to analyze the level of GAPDH protein as previously described. The GAPDH expression was analyzed by densitometry of Western blots using ImageJ software (Version 1.52). The GAPDH expression was normalized with the expression of […]-actin of the corresponding sample. The remaining GAPDH expression was the normalized GAPDH expression of positive control divided by the normalized GAPDH expression of negative control."}, "Calu-3 cells": {"system": "Calu-3 cells", "assay": "GAPDH siRNA transfection on Calu-3 cells (Western blot)", "type": "cell-based, human", "details": "one-way ANOVA, Tukey, n.s. not significant, * p<0.05, ** p<0.01, *** p<0.001", "procedure": "as §1"}, "[2]": {"assay": "Circular dichroism, temperature ramping", "type": "physicochemical", "details": "6 to 94 °C, 5 mM Tris-HCl buffer, 0.1 mg/mL", "procedure": "KL4 and PEG6KL4 peptides were dissolved in 5 mM Tris-HCl buffer at a final concentration of 0.1 mg/mL in 0.1% (v/v) DMSO. PEG12KL4 and PEG24KL4 were dissolved in 5 mM Tris-HCl buffer at a final concentration of 0.1 mg/mL without DMSO. CD spectra were acquired on a Chirascan™ Spectrometer (Applied Photophysics, Leatherhead, UK). For temperature ramping experiment, far-UV CD spectra were obtained with the peptide solution incubated from 6° C. to 94° C. Spectra were recorded from 260 to 190 nm using a 0.5 mm path length and were processed using Chirascan software where a spectrum of the peptide free solution was subtracted and Savitzky-Gorlay smoothing applied."}, "[3]": {"assay": "Solubility of peptides in water", "type": "physicochemical"}, "[4]": {"assay": "Charge ratio of peptide to siRNA at 10:1 weight ratio", "excerpt": "This is partly because the uncharged PEG chains reduced the effective charge ratio between cationic KL4 and siRNA [77]. The charge ratios of KL4, PEG6KL4, PEG12KL4 and PEG24KL4 to siRNA at 10:1 weight ratio are 6.1 to 1, 5.5 to 1, 4.9 to 1 and 4.2 to 1, respectively. […] The molecular weight of the PEG used in this study, which is below 1,200 Da, is relatively low compared with others where PEG of 2,000 to 5,000 Da was often used. Therefore, PEGylated KL4 peptide/siRNA complexes remained to be positively charged, which is suitable for cellular entry. […] In addition, PEG also provides steric hindrance between the interaction of KL4 and siRNA that weakens the binding, promoting the release of siRNA from the complexes after the addition of heparin."}, "BEAS-2B cells [5]": {"system": "BEAS-2B cells", "assay": "GAPDH siRNA transfection on BEAS-2B cells (Western blot)", "type": "cell-based, human", "details": "for siRNA transfection efficiency: 50 nM siRNA, 72 h; for Comparison within the same peptide prepared at different peptide to siRNA ratios: one-way ANOVA, Tukey, n.s. not significant, * p<0.05, ** p<0.01, *** p<0.001", "procedure": "as §1"}, "BEAS-2B cells [6]": {"system": "BEAS-2B cells", "assay": "Luciferase mRNA transfection in vitro on BEAS-2B cells", "type": "cell-based, human", "details": "24 h post-transfection", "procedure": "(§2) A549 cells and BEAS-2B cells were seeded in 24-well plates at a density of 0.5×10^5 and 1×10^5 cells per well, respectively, for overnight. The KL4/mRNA and PEG12KL4/mRNA complexes formed at 5:1 to 30:1 ratio (w/w) in OptiMEM I reduced serum medium were added to the cells at 0.5 or 1 μg mRNA per well. Naked mRNA and lipoplexes (Lipofectamine 2000/mRNA complexes) were used as controls. After 4 h of incubation, the transfection medium was replaced with serum supplemented cell culture medium. At 24 h post-transfection, the cells were washed and lysed with reporter cell lysis buffer. The luciferase expression was detected using the luciferase assay system according to the manufacturer's protocol. The luminescence was measured with luminometer (SpectraMax L Microplate Reader, Molecular devices, CA, USA) and the protein concentrations of the cell lysates were quantified by Bradford protein assay. The results were expressed as relative light unit (RLU) per mg of total protein. To study the transfection efficiency of PEG12KL4/mRNA in SD and SFD powder formulations, the powders were reconstituted before adding to the cells. The luciferase expression was examined at 24 h post-transfection as described above."}, "A549 cells [7]": {"system": "A549 cells", "assay": "Luciferase mRNA transfection in vitro on A549 cells", "type": "cell-based, human", "details": "24 h post-transfection", "procedure": "as §2"}, "A549 cells [8]": {"system": "A549 cells", "assay": "Cellular uptake study of mRNA (flow cytometry and confocal microscopy)", "type": "cell-based, human", "details": "10:1 ratio (w/w), cyanine-5 labelled mRNA, 4 h post-transfection, flow cytometry", "procedure": "The cellular uptake of the mRNA was studied by flow cytometry and confocal microscopy. For the flow cytometry study, A549 cells were seeded in 24-well plates at a density of 0.5×10^5 cells per well one day before the experiment. The cells were transfected with naked mRNA, KL4/mRNA and PEG12KL4/mRNA complexes at 10:1 ratio (w/w) in OptiMEM I reduced serum medium containing 1 μg of cyanine-5 labelled EGFP mRNA per well. After 4 h of incubation, the cells were washed and trypsinized. Cells from three separate wells of the same treatment were combined and suspended in culture medium. The extracellular florescent signal was quenched with 0.04% (w/v) trypan blue solution. After 2 min, the cells were washed, resuspended in 300 μL of PBS and sieved with a sterile 40 μm cell strainer (BD Biosciences, CA, USA). The fluorescence intensity was analyzed by flow cytometry (BD FACSCantoII Analyzer, BD Biosciences, CA, USA). At least 1×10^4 single cells were analyzed for each sample. For the confocal study, A549 cells were seeded in a 35 mm Mattek glass bottom culture dish (Mattek Corp. Ashland, MA, USA) at a density of 1×10^5 cells per well one day before imaging. Naked mRNA, KL4/mRNA and PEG12KL4/mRNA complexes at 10:1 ratio (w/w) were prepared in Opti-MEM I reduced serum medium with 2 μg of cyanine-5 labelled mRNA per dish. […]"}},
  "note": "Non-standard residues stand in square brackets, D forms with d. Residues, ends and D or L forms follow the SMILES beside them. PEG12 = NCCOCCOCCOCCOCCOCCOCCOCCOCCOCCOCCOCCOCCC(=O)O; PEG6 = NCCOCCOCCOCCOCCOCCOCCC(=O)O",
  "data": [
    {"compound": "CC(C)C[C@H](NC(=O)[C@H](CC(C)C)NC(=O)[C@H](CC(C)C)NC(=O)[C@H](CC(C)C)NC(=O)[C@H](CCCCN)NC(=O)[C@H](CC(C)C)NC(=O)[C@H](CC(C)C)NC(=O)[C@H](CC(C)C)NC(=O)[C@H](CC(C)C)NC(=O)[C@H](CCCCN)NC(=O)[C@H](CC(C)C)NC(=O)[C@H](CC(C)C)NC(=O)[C@H](CC(C)C)NC(=O)[C@H](CC(C)C)NC(=O)[C@H](CCCCN)NC(=O)[C@H](CC(C)C)NC(=O)[C@H](CC(C)C)NC(=O)[C@H](CC(C)C)NC(=O)[C@H](CC(C)C)NC(=O)[C@H](CCCCN)NC(=O)CCOCCOCCOCCOCCOCCOCCN)C(=O)N[C@@H](CCCCN)C(N)=O", "note": "[PEG6KL4] (H-[PEG6]KLLLLKLLLLKLLLLKLLLLK-NH2; N-terminus assumed)", "values": [
      {"measurement": "inhibition of GAPDH protein", "setting": "A549 cells [1]; 72 h", "value": 80, "unit": "%"},
      {"measurement": "siRNA transfection efficiency among the four peptides at different amounts of siRNA", "setting": "A549 cells [1]; 72 h", "value": "most effective in transfecting siRNA"},
      {"measurement": "Comparison within the same peptide prepared at different peptide to siRNA ratios", "setting": "A549 cells [1]", "value": "n.s."},
      {"measurement": "Comparison within the same peptide prepared at different peptide to siRNA ratios", "setting": "Calu-3 cells", "value": "n.s."},
      {"measurement": "secondary structure at different temperatures (far-UV CD)", "setting": "[2]", "value": "adopted an alpha-helical structure at all tested temperatures"},
      {"measurement": "solubility", "setting": "[3]", "value": "< 1000", "unit": "µg/mL"},
      {"measurement": "charge ratio of peptide to siRNA", "setting": "[4]", "value": "5.5 to 1"},
      {"measurement": "siRNA transfection efficiency", "setting": "BEAS-2B cells [5]", "value": "significantly higher transfection efficiency compared with lipofectamine 2000"},
      {"measurement": "Comparison within the same peptide prepared at different peptide to siRNA ratios", "setting": "BEAS-2B cells [5]", "value": "n.s."}
    ]},
    {"compound": "CC(C)C[C@H](NC(=O)[C@H](CC(C)C)NC(=O)[C@H](CC(C)C)NC(=O)[C@H](CC(C)C)NC(=O)[C@H](CCCCN)NC(=O)[C@H](CC(C)C)NC(=O)[C@H](CC(C)C)NC(=O)[C@H](CC(C)C)NC(=O)[C@H](CC(C)C)NC(=O)[C@H](CCCCN)NC(=O)[C@H](CC(C)C)NC(=O)[C@H](CC(C)C)NC(=O)[C@H](CC(C)C)NC(=O)[C@H](CC(C)C)NC(=O)[C@H](CCCCN)NC(=O)[C@H](CC(C)C)NC(=O)[C@H](CC(C)C)NC(=O)[C@H](CC(C)C)NC(=O)[C@H](CC(C)C)NC(=O)[C@H](CCCCN)NC(=O)CCOCCOCCOCCOCCOCCOCCOCCOCCOCCOCCOCCOCCN)C(=O)N[C@@H](CCCCN)C(N)=O", "note": "[PEG12KL4] (H-[PEG12]KLLLLKLLLLKLLLLKLLLLK-NH2; N-terminus assumed)", "values": [
      {"measurement": "mRNA transfection efficiency compared with Lipofectamine 2000", "setting": "BEAS-2B cells [6]", "value": "comparable to that of Lipofectamine 2000"},
      {"measurement": "inhibition of GAPDH protein", "setting": "A549 cells [1]; 72 h", "value": 80, "unit": "%"},
      {"measurement": "siRNA transfection compared with KL4", "setting": "A549 cells [1]; A549, 10:1, 15:1 and 20:1 ratios, 50 pmol siRNA, 72 h, n=1 (FIG. 13)", "value": "superior to KL4 in mediating siRNA transfection at all tested ratios"},
      {"measurement": "siRNA transfection efficiency among the four peptides at different amounts of siRNA", "setting": "A549 cells [1]; 72 h", "value": "most effective in transfecting siRNA"},
      {"measurement": "Comparison within the same peptide prepared at different peptide to siRNA ratios", "setting": "A549 cells [1]", "value": "n.s."},
      {"measurement": "secondary structure at different temperatures (far-UV CD)", "setting": "[2]", "value": "more sensitive in response to temperature compared with the other peptides"},
      {"measurement": "solubility", "setting": "[3]", "value": "> 2000", "unit": "µg/mL"},
      {"measurement": "charge ratio of peptide to siRNA", "setting": "[4]", "value": "4.9 to 1"},
      {"measurement": "mRNA transfection efficiency compared with Lipofectamine 2000", "setting": "A549 cells [7]", "value": "comparable to that of Lipofectamine 2000"},
      {"measurement": "siRNA transfection efficiency", "setting": "BEAS-2B cells [5]", "value": "significantly higher transfection efficiency compared with lipofectamine 2000"},
      {"measurement": "Comparison within the same peptide prepared at different peptide to siRNA ratios", "setting": "BEAS-2B cells [5]", "value": "n.s."},
      {"measurement": "percentage of cells with mRNA uptake", "setting": "A549 cells [8]", "value": "Over 60%"}
    ]}
  ]
}
